Like-named read-outs stand apart in the source and are kept apart here.

The source of these data is publication PMC11443494, “Dynamical responses predict a distal site that modulates activity in an antibiotic resistance enzyme” (Chemical Science, 2024).

In assay [1] the target is T1, KPC-2^G89D (Klebsiella pneumoniae, UniProt Q9F663, G88D).
T1 construct: made in house; host or cells: E. coli
Briefly: Steady-state kinetics of β-lactam hydrolysis by KPC-2^G89D. It counts as biochemical. Conditions: for Kcat / K M: KPC-2^G89D, 25 °C, standard error in parentheses; for Kcat: 10 mM HEPES pH 7.5, 150 mM NaCl, BSA; for K M: pH 7.5; for decrease in catalytic efficiency (kcat/KM): KPC-2^G89D compared to wild-type KPC-2. The procedure: (§1) Antibiotic hydrolysis was measured at 25 °C in kinetics buffer (10 mM HEPES, pH 7.5 and 150 mM NaCl, 100 μg per mL bovine […] albumin (BSA)). […] Hydrolysis was followed using Greiner half area 96-well plates and a BMG CLARIOstar Plus microplate reader. GraphPad Prism 9.3.1 (GraphPad Software, La Jolla, CA, USA; https://www.graphpad.com) was used to calculate kinetic parameters. Initial rates of antibiotic hydrolysis measured across a range of antibiotic concentrations were used to calculate steady-state parameters according to the Michaelis–Menten equation.

For assay [2], the target named is T2, KPC-2 (Klebsiella pneumoniae, UniProt Q9F663).
T2 construct: made in house
T2 sequence (Q9F663 25-293 limits assumed): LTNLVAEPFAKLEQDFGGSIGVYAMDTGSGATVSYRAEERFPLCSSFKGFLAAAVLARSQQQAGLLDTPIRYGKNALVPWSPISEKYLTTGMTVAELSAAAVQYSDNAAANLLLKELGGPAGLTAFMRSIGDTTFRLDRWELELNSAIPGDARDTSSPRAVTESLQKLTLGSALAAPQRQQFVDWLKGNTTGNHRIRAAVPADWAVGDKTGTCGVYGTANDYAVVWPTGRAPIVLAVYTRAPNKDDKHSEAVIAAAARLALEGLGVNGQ
It counts as biochemical. The procedure: as §1

For assay [3], the system named is SHV-38. Also on record: method as in Poirel et al [3]. The note with it: ref Poirel et al [3]; cited from earlier work.
Assay [4] concerns SHV-2. On the set-up: method as in Liakopoulos et al. [2]. Conditions: ref Liakopoulos et al. [2], cited from earlier work.
Assay [5] concerns SHV-1. Also on record: method as in Liakopoulos et al. [2]. Conditions: ND = no detected hydrolysis, ref Liakopoulos et al. [2]; cited from earlier work.
In assay [6] the target is T2, KPC-2. Briefly: Pre-steady-state (stopped-flow tryptophan fluorescence) binding kinetics, KPC-2. The procedure:
(§2) Pre-steady state kinetics were measured by mixing meropenem with KPC-2 or KPC-2^G89D (both 10 nM concentration) in an Applied Photophysics SX20 stopped-flow spectrometer connected to a photodiode array detector in kinetics buffer. Data were fitted from 0.005 to 0.3 s for both 5 repeats of each of KPC-2 : meropenem and KPC-2^G89D : meropenem. k1 and k−1 were calculated from the gradient and the y-intercept of the kobsvs. substrate concentration curves. KD is calculated using the following equation: [drawing 1]
(§3) Figure S11: Binding kinetics of meropenem calculated using pre-steady state kinetics. a) Kinetic model for binding and hydrolysis of β-lactam substrates by serine β-lactamases. KD is calculated by k-1 / k1. Normalised tryptophan fluorescence curves, averaged over 5 transients, measured from 0.005 s to 0.25 s, for meropenem binding to KPC-2 (b) and KPC-2G89D (both at 10 nM) (c) were used to calculate kobs over a range of concentrations using one phase decay curve fitting. kobs was plotted for KPC-2 (d) and KPC-2G89D (e), and a linear regression used to calculate the y-intercept (k-1) and the slope (k 1). The calculated KD values are 3.7 μM and 5.9 μM for KPC-2 and KPC-2G89D. […]

Assay [7] deals with T1, KPC-2^G89D. Briefly: Pre-steady-state (stopped-flow tryptophan fluorescence) binding kinetics, KPC-2^G89D. As to the method:
as §2, §3

Assay [8] has as its target T2, KPC-2. As to the kind of experiment: Inhibition of nitrocefin hydrolysis (IC50), KPC-2. The class given is biochemical. Conditions: wild-type KPC-2; nitrocefin 200 μM, 10 minute pre-incubation. As to the method:
Both inhibitors were dissolved in kinetics buffer.

Assay [9] deals with T1, KPC-2^G89D. Briefly: Inhibition of nitrocefin hydrolysis (IC50), KPC-2^G89D. The class given is biochemical. Conditions: nitrocefin 200 μM, 10 minute pre-incubation of enzyme and inhibitor.
Setting [10] is: KPC-2, 25 °C, 10 mM HEPES pH 7.5, 150 mM NaCl, BSA, standard error in parentheses.
Setting [11] is: KPC-2, 25 °C, pH 7.5, standard error in parentheses.

T1 sequence (Q9F663 25-293 G88D): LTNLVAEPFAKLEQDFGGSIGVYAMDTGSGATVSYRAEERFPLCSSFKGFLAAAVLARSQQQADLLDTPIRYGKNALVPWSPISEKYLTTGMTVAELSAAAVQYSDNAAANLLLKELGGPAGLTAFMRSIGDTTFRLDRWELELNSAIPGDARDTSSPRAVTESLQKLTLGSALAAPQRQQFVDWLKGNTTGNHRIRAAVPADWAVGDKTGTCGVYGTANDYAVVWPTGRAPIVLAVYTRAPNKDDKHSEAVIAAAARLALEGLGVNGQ

Consider `CC1(C)S[C@@H]2[C@H](NC(=O)[C@H](N)c3ccccc3)C(=O)N2[C@H]1C(=O)O` [Ampicillin], for which, in assay [1], the Kcat is 160 (5.83) s^−1 and the “K M” value is on record as 201 (36.3) μM. In addition, in [2] (pH 7.5), the “K M” value was 271 (44.7) μM and the Kcat is recorded as 82.3 (3.92) s^−1.

On to `CC1(C)S[C@@H]2[C@H](NC(=O)Cc3ccccc3)C(=O)N2[C@H]1C(=O)O` [Benzylpenicillin], for which the Kcat was 100 s⁻¹ in assay [3] and 455 s⁻¹ in [5]. Also, the Km (as a rule, the concentration of substrate that gives half-maximal velocity) in assay [3] is 13 µM; in assay [4] (ND = no detected hydrolysis), 3.8 µM; in assay [5], 20 µM. Further, the Vmax (in general, the rate approached at saturating substrate) in assay [4] was 100 µM/min.

For the compound `CO/N=C(\C(=O)N[C@@H]1C(=O)N2C(C(=O)O)=C(COC(C)=O)CS[C@H]12)c1csc(N)n1` [Cefotaxime], in assay [3], the Kcat is 1 s⁻¹ and the Km was 800 µM. In assay [4] (ND = no detected hydrolysis), the Kcat is 11 s⁻¹ and the Km was 18 µM. The Vmax in assay [4] was 70 µM/min.

As to `CC(C)(O/N=C(\C(=O)N[C@@H]1C(=O)N2C(C(=O)[O-])=C(C[n+]3ccccc3)CS[C@H]12)c1csc(N)n1)C(=O)O` [Ceftazidime], in assay [3], the Kcat is 110 s⁻¹. Moreover, the values for the Michaelis-Menten constant (Km) in assay [3] and in [4] (ND = no detected hydrolysis) were 3800 µM and 24 µM, respectively. For the same compound, the Vmax in assay [4] is 6.5 µM/min.

For `CC(=O)OCC1=C(C(=O)O)N2C(=O)[C@@H](NC(=O)Cc3cccs3)[C@H]2SC1` [Cephalothin], the results for the Kcat in assay [3] and in assay [5] were 5 s⁻¹ and 10 s⁻¹, respectively. Further, the values for the Km in [3] and in [5] were 100 µM and 26 µM, respectively.

Turning to `C[C@@H](O)[C@H]1C(=O)N2C(C(=O)O)=C(SCCN=CN)C[C@H]12` [Imipenem], in assay [1], the “decrease in catalytic efficiency (kcat/KM)” value is recorded as 10 fold. Besides, the Kcat in assay [1] was 2.8 (0.12) s^−1; in assay [2] (setting [10]), 22 (0.43) s^−1; in assay [3], 0.01 s⁻¹. Besides, the entries for the “K M” value in assay [1] and in assay [2] (setting [11]) were 68.9 (10.2) μM and 72 (3.2) μM, respectively. Also, the Km in [3] was 24 µM.

On to `C[C@@H](O)[C@H]1C(=O)N2C(C(=O)O)=C(S[C@@H]3CN[C@H](C(=O)N(C)C)C3)[C@H](C)[C@H]12` [Meropenem], for which the equilibrium dissociation constant (Kd) (in general, the constant that tells how readily two partners part at equilibrium) in assay [6] is 3700 nM; in assay [7], 5900 nM. The “decrease in catalytic efficiency (kcat/KM)” value in [1] is given as 100 fold. In addition, the results for the Kcat in assay [1] and in assay [2] (setting [10]) were 0.2 (1 × 10^−2) s^−1 and 21.5 (0.12) s^−1, respectively. The “K M” value in assay [1] is on record as 7.9 (1.57) μM; in assay [2] (setting [11]) it was 7.1 (1.01) μM.

Take `O=C(NNC(=O)[C@@H]1CC[C@@H]2CN1C(=O)N2OS(=O)(=O)O)[C@@H]1CCCNC1` [Zidebactam]: the IC50 – broadly, the point on the concentration scale where inhibition reaches its midpoint – in assay [8] was found to be 0.06 nM; in assay [9] it was 0.7 nM.
